In patent US8735391B2, “Synthesis of functionalized octahydro-isoquinolin-1-one-8-carboxamides, octahydro-isoquinolin-1-one-8-carboxylic esters and analogs, and therapeutic methods” (University of Kansas, priority 2008, dated 2014):
Where two headings read alike, the source gives them in different places.

Assays:
[1] = target: MOR (Homo sapiens, UniProt P35372); test: Opioid secondary binding, MOR (Tables 4, 5, 8); settings: Opioid secondary binding activity for Formula 10 analogs; read-out: MOR, Ki
Chain of MOR (P35372 whole entry): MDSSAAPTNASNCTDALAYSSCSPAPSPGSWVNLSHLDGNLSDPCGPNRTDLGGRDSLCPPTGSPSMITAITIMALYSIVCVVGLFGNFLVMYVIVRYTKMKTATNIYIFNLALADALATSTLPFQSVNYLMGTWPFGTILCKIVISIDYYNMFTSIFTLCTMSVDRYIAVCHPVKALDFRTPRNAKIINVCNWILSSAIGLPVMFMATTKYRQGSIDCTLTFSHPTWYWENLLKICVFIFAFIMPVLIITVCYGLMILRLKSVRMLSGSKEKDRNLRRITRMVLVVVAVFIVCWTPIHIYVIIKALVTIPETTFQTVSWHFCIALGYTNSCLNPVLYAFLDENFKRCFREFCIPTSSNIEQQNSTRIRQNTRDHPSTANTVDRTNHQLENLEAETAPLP

[2] = target: T1, KOR (Homo sapiens, UniProt P41145); test: Opioid secondary binding, KOR (Tables 4, 5, 8, 9)
T1 sequence (P41145 whole entry): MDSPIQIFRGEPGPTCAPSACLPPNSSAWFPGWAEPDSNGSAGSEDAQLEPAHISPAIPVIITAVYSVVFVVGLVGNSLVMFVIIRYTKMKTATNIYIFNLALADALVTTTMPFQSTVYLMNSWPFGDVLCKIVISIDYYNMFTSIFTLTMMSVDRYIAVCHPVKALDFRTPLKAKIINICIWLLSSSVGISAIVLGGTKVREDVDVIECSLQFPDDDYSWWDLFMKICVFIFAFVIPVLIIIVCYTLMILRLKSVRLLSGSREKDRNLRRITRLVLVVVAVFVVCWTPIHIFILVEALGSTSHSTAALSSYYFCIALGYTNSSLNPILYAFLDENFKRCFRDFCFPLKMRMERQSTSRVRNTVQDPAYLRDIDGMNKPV

[3] = target: T1, KOR; test: [35S]GTPγS binding functional agonist assay on membranes of CHO cells expressing hKOR (reference agonist U69593); format: biochemical; set-up: expressed in transfected cells; host or cells: CHO cells, stably transfected; crude membrane fractions; settings: for KOR agonist (average percent efficacy relative to cognate agonist): test compound at 10 micromolar, N=4, reference agonist = 100%, CHO-cell line expressing hKOR
Protocol: The compounds prepared herein were tested for bioactivity with opioid receptors. Agonist assays: Data represent the percent efficacy (relative to cognate agonist) of the test compound at 10 micromolar. The response to a saturating concentration of a reference antagonist or to vehicle (usually none or negligible) is set to 0%. […] The response inhibition elicited by a saturating concentration of reference antagonist is set to 100%; the response inhibition (usually none or negligible) elicited by vehicle is set to 0%. The following tables provide data related to the bioactivity for opioid receptors of the compounds described herein.
Table 6 provides data that represent the average percent efficacy (N=4; relative to cognate agonist) of the test compound at 10 micromolar concentration. The response to a saturating concentration of cognate/reference agonist is set to 100%; the response to a saturating concentration of a reference antagonist or to vehicle (usually none or negligible) is set to 0%. All functional assays are performed on stably transfected CHO-cell lines expressing hKOR, hMOR or hDOR.
(§1) Serial dilutions of the test and reference compounds are made in binding buffer at 2× assay concentration (final assay concentrations ranging from 0.1 nM to 10 μM). Crude membrane fractions (1.8 to 3.5 cm2/well) (prepared from 10-cm plates by harvesting PBS-rinsed monolayers, resuspending and lysing in chilled, hypotonic 50 mM Tris-HCl, pH 7.4, centrifuging at 20,000×g, decanting the supernatant and storing at −80 degrees centigrade; typically, one 10-cm plate provides sufficient material for 24 wells) are resuspended in 1.2 ml of assay buffer containing 20 μM GDP, wheat germ agglutinin (WGA)-coated scintillation proximity beads (2.4 mg), and [35S]GTPγS (300 pM final). The suspension is then added (50 μl/well) to 50 μl of the 2× test or reference compounds (each concentration assayed in triplicate) in flexible transparent PET 96-well plates. The reaction plate is sealed and incubated for 90 min at room temperature, then centrifuged for 5 min at 216×g, and finally loaded into a Wallac MicroBeta TriLux counter. Non-specific [35S]GTPγS binding is assessed at the maximum concentration of reference agonist in the presence of 10 μM antagonist. The background signal is measured at 10 μM reference agonist in the presence of 10 μM unlabeled GTPγS. Raw data (dpm) representing total [35S]GTPγS binding (i.e., specific+non-specific binding) are calculated as a percentage of the maximum response by the reference agonist (in this case U69593).
as §1, with “GTPγS.” for “GTPγS. Raw data (dpm) representing total [35S]GTPγS binding (i.e., specific+non-specific binding) are calculated as a percentage of the maximum response by the reference agonist (in this case U69593).”

[4] = target: DOR (Homo sapiens, UniProt P41143); test: Opioid secondary binding, DOR (Table 4); settings: Opioid secondary binding activity for Formula 10 analogs
Chain of DOR (P41143 whole entry): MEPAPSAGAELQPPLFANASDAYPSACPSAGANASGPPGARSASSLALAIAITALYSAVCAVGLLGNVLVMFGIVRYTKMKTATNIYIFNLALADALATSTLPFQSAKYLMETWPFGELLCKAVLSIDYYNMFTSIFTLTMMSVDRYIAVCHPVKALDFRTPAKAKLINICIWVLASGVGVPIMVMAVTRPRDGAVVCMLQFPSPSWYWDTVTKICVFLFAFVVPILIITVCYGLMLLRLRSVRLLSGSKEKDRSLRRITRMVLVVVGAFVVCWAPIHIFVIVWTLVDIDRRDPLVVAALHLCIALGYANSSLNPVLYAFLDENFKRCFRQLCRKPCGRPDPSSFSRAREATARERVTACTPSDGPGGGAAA

[5] = Opioid secondary binding activity for Formula 10 analogs, read-out: KOR, Ki

Q: For O=C(OCc1ccccc1)C(Cc1ccccc1)NC(=O)C1CC=CC2CCN(Cc3ccc(Cl)cc3)C(=O)C21 (mixture of isomers) [compound 11813], which Ki [1] is on record?
A: 1910 nM

Q: And the Ki [2, 5]?
A: 1160 nM

Q: What does the source list for O=C(NCCc1ccccc1)[C@@H]1CC=C[C@@H]2CCN(Cc3ccc(Cl)c(Cl)c3)C(=O)[C@@H]21 (racemic) [compound 5084]?
A: Ki [1]: 5190 nM; Ki [2, 5]: 4800 nM

Q: Which Ki [1] does the source give for O=C(Nc1ccc(F)c(F)c1)[C@@H]1CC=C[C@@H]2CCN(Cc3ccc(Cl)c(Cl)c3)C(=O)[C@@H]21 (racemic) [compound 5085] here?
A: 4660 nM

Q: And the Ki [2, 5]?
A: 2960 nM

Q: O=C(Nc1ccc(Cl)c(C(F)(F)F)c1)[C@@H]1CC=C[C@@H]2CCN(Cc3ccccc3)C(=O)[C@@H]21 (racemic) [compound 8620] was tested. Which Ki [1] did it give?
A: 3550 nM

Q: And the Emax ([3]; read-out: Emax values relative to U69593)?
A: 67%

Q: And the Ki [2]?
A: 5.3 nM

Q: Which Ki [1] does the source give for O=C1[C@H]2[C@H](C=CC[C@H]2C(=O)N2CCN(c3ccccc3)CC2)CCN1Cc1ccccc1 (racemic) [compound 8912] here?
A: 2400 nM

Q: What about the Ki [4] of the same compound?
A: 3850 nM

Q: What about the “KOR agonist (average percent efficacy relative to cognate agonist)” value [3] of the same compound?
A: 8%

Q: And the Ki [2, 5]?
A: 4800 nM

Q: With O=C(NCCc1ccccc1)[C@@H]1CC=C[C@@H]2CCN(Cc3ccccc3)C(=O)[C@@H]21 (racemic) [compound 8916] as the compound, how does the Ki [1] read?
A: 4600 nM

Q: And the “KOR agonist (average percent efficacy relative to cognate agonist)” value [3]?
A: 110.6%

Q: And the Ki [2, 5]?
A: 561 nM

Q: Which Ki [1] does the source give for COc1ccc(CNC(=O)[C@@H]2CC=C[C@@H]3CCN(Cc4ccc(Cl)c(Cl)c4)C(=O)[C@@H]32)cc1 (racemic) [compound 8928] here?
A: 7400 nM

Q: What about the “KOR agonist (average percent efficacy relative to cognate agonist)” value [3] of the same compound?
A: 17.7%

Q: What about the Ki [2, 5] of the same compound?
A: 964 nM

Q: Which results are given for O=C(Nc1ccccc1)[C@@H]1CC=C[C@@H]2CCN(C3CCCCC3)C(=O)[C@@H]21 (racemic) [compound 8939]?
A: Ki [4]: 8940 nM; KOR agonist (average percent efficacy relative to cognate agonist) [3]: 133.7%; Ki [2, 5]: 71 nM

Q: Which Ki [4] does the source give for CCCCN1CC[C@H]2C=CC[C@@H](C(=O)Nc3ccccc3)[C@H]2C1=O (racemic) [compound 8940] here?
A: 6110 nM

Q: What about the “KOR agonist (average percent efficacy relative to cognate agonist)” value [3] of the same compound?
A: 112.1%

Q: What about the Ki [2, 5] of the same compound?
A: 677 nM

Q: COc1ccc(NC(=O)[C@@H]2CC=C[C@@H]3CCN(C4CCCCC4)C(=O)[C@@H]32)cc1 (racemic) [compound 8945] was tested. Which Ki [4] did it give?
A: 5670 nM

Q: What about the “KOR agonist (average percent efficacy relative to cognate agonist)” value [3] of the same compound?
A: 54.3%

Q: And the Ki [2, 5]?
A: 1790 nM

Q: For COc1ccc(NC(=O)[C@@H]2CC=C[C@@H]3CCN(Cc4ccc(Cl)c(Cl)c4)C(=O)[C@@H]32)cc1 (racemic) [compound 8947], which Ki [1] is on record?
A: 3490 nM

Q: And the “KOR agonist (average percent efficacy relative to cognate agonist)” value [3]?
A: 17.3%

Q: And the Ki [2, 5]?
A: 2560 nM

Q: How did the Ki [1] turn out when COc1ccc(CN2CC[C@H]3C=CC[C@@H](C(=O)Nc4ccc(Cl)cc4Cl)[C@H]3C2=O)cc1OC (racemic) [compound 8952] was run?
A: 5660 nM

Q: What about the “KOR agonist (average percent efficacy relative to cognate agonist)” value [3] of the same compound?
A: −2.6%

Q: With O=C(Nc1ccc(Cl)c(C(F)(F)F)c1)[C@@H]1CC=C[C@@H]2CCN(C3CCCCC3)C(=O)[C@@H]21 (racemic) [compound 8955] as the compound, how does the “KOR agonist (average percent efficacy relative to cognate agonist)” value [3] read?
A: 93.2%

Q: And the Ki [2, 5]?
A: 111 nM

Q: For CCCCN1CC[C@H]2C=CC[C@@H](C(=O)Nc3ccc(Cl)c(C(F)(F)F)c3)[C@H]2C1=O (racemic) [compound 8956], which Ki [1] is on record?
A: 2220 nM

Q: And the “KOR agonist (average percent efficacy relative to cognate agonist)” value [3]?
A: 118.7%

Q: And the Ki [2, 5]?
A: 190 nM

Q: How did the Ki [1] turn out when COc1ccc(CN2CC[C@H]3C=CC[C@@H](C(=O)Nc4ccc(Cl)c(C(F)(F)F)c4)[C@H]3C2=O)cc1OC (racemic) [compound 8958] was run?
A: 2540 nM

Q: With O=C(Nc1ccc(Cl)c(C(F)(F)F)c1)[C@@H]1CC=C[C@@H]2CCN(c3ccccc3)C(=O)[C@@H]21 (racemic) [compound 10825] as the compound, how does the “Emax values relative to U69593” value ([3]; [35S]GTPγS data-fit top relative to reference agonist U69593) read?
A: 82%

Q: What about the Ki [2, 5] of the same compound?
A: 100 nM

Q: What does the source list for O=C(Nc1ccc(Cl)c(C(F)(F)F)c1)C1CCCC2CCN(Cc3ccccc3)C(=O)C21 (racemic) [compound 11478]?
A: Ki [1]: 1750 nM; Ki [2, 5]: 51 nM
